Laboratory results from patent publication US12539292B2, “BRM targeting compounds and associated methods of use” (Arvinas Operations, Inc., priority 2018, dated 2026).

Biological target: T1, BRM (Homo sapiens, UniProt P51531)
T1 construct: In-Cell Western Screen of BRM Degradation in SW1573 Cells; endogenous in cells; host or cells: SW1573
Assay: In-cell Western screen of BRM degradation in SW1573 cells (Dmax and DC50)
Format: cell-based
Conditions: BRM degradation, SW1573 cells; for DC50: read-out: DC50; for Dmax: when tested at the top concentration of between 0.3 and 10 μM, read-out: Dmax (%) (% degraded)
Outline: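 Adherent SW1573 cultures exposed to test compounds for 18-20 h were processed for in-cell Western after PFA fixation and detergent permeabilization. BRM degradation was reported as Dmax and DC50.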

T1 sequence (P51531 whole entry): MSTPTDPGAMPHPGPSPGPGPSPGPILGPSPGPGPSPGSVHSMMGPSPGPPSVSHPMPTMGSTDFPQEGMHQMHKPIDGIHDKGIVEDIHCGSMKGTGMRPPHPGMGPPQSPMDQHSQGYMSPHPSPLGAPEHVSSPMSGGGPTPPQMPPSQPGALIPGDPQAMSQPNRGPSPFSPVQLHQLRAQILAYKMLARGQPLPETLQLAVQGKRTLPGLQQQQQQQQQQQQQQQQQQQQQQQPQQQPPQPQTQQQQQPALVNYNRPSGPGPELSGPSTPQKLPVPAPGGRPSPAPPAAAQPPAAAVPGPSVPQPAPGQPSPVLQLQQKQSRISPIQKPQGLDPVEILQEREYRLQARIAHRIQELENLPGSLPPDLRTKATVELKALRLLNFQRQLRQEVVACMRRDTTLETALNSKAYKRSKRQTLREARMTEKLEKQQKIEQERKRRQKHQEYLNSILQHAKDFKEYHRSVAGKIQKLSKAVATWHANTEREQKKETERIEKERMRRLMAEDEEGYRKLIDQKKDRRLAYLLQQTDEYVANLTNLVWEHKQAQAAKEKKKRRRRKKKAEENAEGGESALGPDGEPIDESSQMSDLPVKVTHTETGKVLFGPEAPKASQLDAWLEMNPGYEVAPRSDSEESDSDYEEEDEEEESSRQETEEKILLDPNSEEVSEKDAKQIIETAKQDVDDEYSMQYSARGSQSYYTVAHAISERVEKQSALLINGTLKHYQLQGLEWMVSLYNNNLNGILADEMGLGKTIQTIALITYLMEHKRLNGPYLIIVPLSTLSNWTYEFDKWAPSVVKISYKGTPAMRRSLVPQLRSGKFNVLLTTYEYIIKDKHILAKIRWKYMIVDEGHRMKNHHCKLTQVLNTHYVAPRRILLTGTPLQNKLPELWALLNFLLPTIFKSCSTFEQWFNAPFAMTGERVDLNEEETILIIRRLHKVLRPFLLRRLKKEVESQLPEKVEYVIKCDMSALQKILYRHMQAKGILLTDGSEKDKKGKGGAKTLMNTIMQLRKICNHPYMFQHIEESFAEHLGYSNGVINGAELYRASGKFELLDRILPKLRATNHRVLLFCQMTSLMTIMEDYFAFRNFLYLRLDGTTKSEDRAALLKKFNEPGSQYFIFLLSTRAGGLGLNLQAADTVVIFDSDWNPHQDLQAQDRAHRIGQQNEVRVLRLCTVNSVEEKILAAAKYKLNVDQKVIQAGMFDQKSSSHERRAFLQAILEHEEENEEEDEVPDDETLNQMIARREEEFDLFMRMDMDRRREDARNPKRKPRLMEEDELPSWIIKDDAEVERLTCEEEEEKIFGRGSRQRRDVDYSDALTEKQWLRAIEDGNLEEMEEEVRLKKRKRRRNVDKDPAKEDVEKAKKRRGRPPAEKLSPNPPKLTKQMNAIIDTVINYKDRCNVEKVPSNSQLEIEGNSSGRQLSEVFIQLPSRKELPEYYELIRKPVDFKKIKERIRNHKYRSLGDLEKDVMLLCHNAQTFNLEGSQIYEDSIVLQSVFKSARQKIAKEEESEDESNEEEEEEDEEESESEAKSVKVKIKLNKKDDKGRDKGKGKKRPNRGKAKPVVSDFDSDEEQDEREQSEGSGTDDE

SMILES | DC50 [nM] | Dmax [%]
Cc1ncsc1-c1ccc(CNC(=O)[C@@H]2C[C@@H](O)CN2C(=O)[C@@H](NC(=O)COCCOCCOCCOc2cc(N3C4CCC3CN(c3cc(-c5ccccc5O)nnc3N)C4)ccn2)C(C)(C)C)cc1 [compound 6, (2S,4R)-1-((2S)-14-((4-(3-(3-amino-6-(2-hydroxyphenyl)pyridazin-4-yl)-3,8-diazabicyclo[2.1]octan-8-yl)pyridin-2-yl)oxy)-2-(tert-butyl)-4-oxo-6,9,12-trioxa-3-azatetradecanoyl)-4-hydroxy-N-(4-(4-methylthiazol-5-yl)benzyl)pyrrolidine-2-carboxamide] | 10 to 30 | > 75
Cc1ncsc1-c1ccc(CNC(=O)[C@@H]2C[C@@H](O)CN2C(=O)[C@@H](NC(=O)COCCOCCOCCOCCOc2cc(N3C4CCC3CN(c3cc(-c5ccccc5O)nnc3N)C4)ccn2)C(C)(C)C)cc1 [compound 7, (2S,4R)-1-((2S)-17-((4-(3-(3-amino-6-(2-hydroxyphenyl)pyridazin-4-yl)-3,8-diazabicyclo[3.2.1]octan-8-yl)pyridin-2-yl)oxy)-2-(tert-butyl)-4-oxo-6,9,12,15-tetraoxa-3-azaheptadecanoyl)-4-hydroxy-N-(4-(4-methylthiazol-5-yl)benzyl)pyrrolidine-2-carboxamide] | 2.5 to 10 | > 75
Cc1ncsc1-c1ccc(CNC(=O)[C@@H]2C[C@@H](O)CN2C(=O)[C@@H](NC(=O)COCCOCCOCCOCCOCCOCCOc2cc(N3C4CCC3CN(c3cc(-c5ccccc5O)nnc3N)C4)ccn2)C(C)(C)C)cc1 [compound 8, (2S,4R)-1-((2S)-23-((4-(3-(3-amino-6-(2-hydroxyphenyl)pyridazin-4-yl)-3,8-diazabicyclo[3.2.1]octan-8-yl)pyridin-2-yl)oxy)-2-(tert-butyl)-4-oxo-6,9,12,15,18,21-hexaoxa-3-azatricosanoyl)-4-hydroxy-N-(4-(4-methylthiazol-5-yl)benzyl)pyrrolidine-2-carboxamide] | 10 to 30 | > 75
Cc1ncsc1-c1ccc(CNC(=O)[C@@H]2C[C@@H](O)CN2C(=O)[C@@H](NC(=O)COCCOCCOCCOCCOCCOc2cc(N3[C@@H]4CC[C@H]3CN(c3cc(-c5ccccc5O)nnc3N)C4)ccn2)C(C)(C)C)cc1 [compound 9, (2S,4R)-1-((S)-20-((4-((1R,5S)-3-(3-amino-6-(2-hydroxyphenyl)pyridazin-4-yl)-3,8-diazabicyclo[3.2.1]octan-8-yl)pyridin-2-yl)oxy)-2-(tert-butyl)-4-oxo-6,9,12,15,18-pentaoxa-3-azaicosanoyl)-4-hydroxy-N-(4-(4-methylthiazol-5-yl)benzyl)pyrrolidine-2-carboxamide] | 2.5 to 10 | > 75
Cc1ncsc1-c1ccc(CNC(=O)[C@@H]2C[C@@H](O)CN2C(=O)[C@@H](NC(=O)COCCOCCOCCOCCOCCOCCOCCOc2cc(N3C4CCC3CN(c3cc(-c5ccccc5O)nnc3N)C4)ccn2)C(C)(C)C)cc1 [compound 10, (2S,4R)-1-((2S)-26-((4-(3-(3-amino-6-(2-hydroxyphenyl)pyridazin-4-yl)-3,8-diazabicyclo[3.2.1]octan-8-yl)pyridin-2-yl)oxy)-2-(tert-butyl)-4-oxo-6,9,12,15,18,21,24-heptaoxa-3-azahexacosanoyl)-4-hydroxy-N-(4-(4-methylthiazol-5-yl)benzyl)pyrrolidine-2-carboxamide] | 2.5 to 10 | > 75
Cc1ncsc1-c1ccc(CNC(=O)[C@@H]2C[C@@H](O)CN2C(=O)[C@H](C(C)C)N2Cc3ccccc3C2=O)c(OCCOCCOCCOCCn2cc(-c3cc(-c4ccccc4O)nnc3N)cn2)c1 [compound 12, (2S,4R)-N-(2-(2-(2-(2-(2-(4-(3-amino-6-(2-hydroxyphenyl)pyridazin-4-yl)-1H-pyrazol-1-yl)ethoxy)ethoxy)ethoxy)ethoxy)-4-(4-methylthiazol-5-yl)benzyl)-4-hydroxy-1-((S)-3-methyl-2-(1-oxoisoindolin-2-yl)butanoyl)pyrrolidine-2-carboxamide] | > 30 | 50 to 75
Cc1ncsc1-c1ccc(CNC(=O)[C@@H]2C[C@@H](O)CN2C(=O)[C@H](C(C)C)N2Cc3ccccc3C2=O)c(OCCOCCOCCOCCOCCn2cc(-c3cc(-c4ccccc4O)nnc3N)cn2)c1 [compound 13, (2S,4R)-N-(2-((14-(4-(3-amino-6-(2-hydroxyphenyl)pyridazin-4-yl)-1H-pyrazol-1-yl)-3,6,9,12-tetraoxatetradecyl)oxy)-4-(4-methylthiazol-5-yl)benzyl)-4-hydroxy-1-((S)-3-methyl-2-(1-oxoisoindolin-2-yl)butanoyl)pyrrolidine-2-carboxamide] | > 30 | > 75

Other lines, results leading:

DC50 [nM] | Dmax [%] | SMILES
> 30 | > 75 | Cc1ncsc1-c1ccc(CNC(=O)[C@@H]2C[C@@H](O)CN2C(=O)[C@@H](NC(=O)COCCOCCOCCOCCOCCOCCn2cc(-c3cc(-c4ccccc4O)nnc3N)cn2)C(C)(C)C)cc1 [compound 3, (2S,4R)-1-((S)-23-(4-(3-amino-6-(2-hydroxyphenyl)pyridazin-4-yl)-1H-pyrazol-1-yl)-2-(tert-butyl)-4-oxo-6,9,12,15,18,21-hexaoxa-3-azatricosanoyl)-4-hydroxy-N-(4-(4-methylthiazol-5-yl)benzyl)pyrrolidine-2-carboxamide]
> 30 | > 75 | Cc1ncsc1-c1ccc(CNC(=O)[C@@H]2C[C@@H](O)CN2C(=O)[C@@H](NC(=O)COCCOCCOCCOCCOCCn2cc(-c3cc(-c4ccccc4O)nnc3N)cn2)C(C)(C)C)cc1 [compound 4, (2S,4R)-1-((S)-20-(4-(3-amino-6-(2-hydroxyphenyl)pyridazin-4-yl)-1H-pyrazol-1-yl)-2-(tert-butyl)-4-oxo-6,9,12,15,18-pentaoxa-3-azaicosanoyl)-4-hydroxy-N-(4-(4-methylthiazol-5-yl)benzyl)pyrrolidine-2-carboxamide]
> 30 | > 75 | Cc1ncsc1-c1ccc(CNC(=O)[C@@H]2C[C@@H](O)CN2C(=O)[C@@H](NC(=O)COCCOCCOCCOCCOCCOCCOCCn2cc(-c3cc(-c4ccccc4O)nnc3N)cn2)C(C)(C)C)cc1 [compound 5, (2S,4R)-1-((S)-26-(4-(3-amino-6-(2-hydroxyphenyl)pyridazin-4-yl)-1H-pyrazol-1-yl)-2-(tert-butyl)-4-oxo-6,9,12,15,18,21,24-heptaoxa-3-azahexacosanoyl)-4-hydroxy-N-(4-(4-methylthiazol-5-yl)benzyl)pyrrolidine-2-carboxamide]
> 30 | > 75 | Cc1ncsc1-c1ccc(CNC(=O)[C@@H]2C[C@@H](O)CN2C(=O)[C@@H](NC(=O)COCCOCCn2cc(-c3cc(-c4ccccc4O)nnc3N)cn2)C(C)(C)C)cc1 [compound 11, (2S,4R)-1-((S)-2-(2-(2-(2-(4-(3-amino-6-(2-hydroxyphenyl)pyridazin-4-yl)-1H-pyrazol-1-yl)ethoxy)ethoxy)acetamido)-3,3-dimethylbutanoyl)-4-hydroxy-N-(4-(4-methylthiazol-5-yl)benzyl)pyrrolidine-2-carboxamide]
– | < 50 | Cc1ncsc1-c1ccc(CNC(=O)[C@@H]2C[C@@H](O)CN2C(=O)[C@H](c2cc(OCCOCCOCCn3cc(-c4cc(-c5ccccc5O)nnc4N)cn3)no2)C(C)C)cc1 [compound 14, (2S,4R)-1-[(2S)-2-(3-[2-[2-(2-[4-[3-amino-6-(2-hydroxyphenyl)pyridazin-4-yl]-1H-pyrazol-1-yl]ethoxy)ethoxy]ethoxy]-1,2-oxazol-5-yl)-3-methylbutanoyl]-4-hydroxy-N-[[4-(4-methyl-1,3-thiazol-5-yl)phenyl]methyl]pyrrolidine-2-carboxamide]
